We go through eight compounds from ChEMBL document CHEMBL1201862, “PubChem BioAssay data set” (2004).

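The compound was tested at five concentrations on cells cultured in 96-well plates, with a 48-hour exposure period. GI50 marks 50% less growth.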 Activity calls are given as the source filed them. Rule as the data show it: active = GI50 up to about 1.1 µM and inactive = higher.

Some test systems named below: SN12C; SK-MEL-5; CCRF-CEM; SK-OV-3; HCT-15; MDA-MB-231; A498; NCI-H226; HOP-62; K562; LOX IMVI; SF-295; M14; CAKI-1; DU-145; TK-10; SF-268; SR; SK-MEL-2; RXF 393.
What all share (experiment): inhibition of tumour cell growth, NCI panel, 48 h

As for `COc1ccc2c(c1)OCC1Cc3cc4c(cc3OC21)OCO4` (centres undefined), the GI50 in the test on SN12C is 28.4 µM (inactive); with SK-MEL-5, 16.8 µM (inactive); in the test on CCRF-CEM, 51.1 µM (inactive); with SK-OV-3, 37.2 µM (inactive); in the test with HCT-15, 30.4 µM; in the test with MDA-MB-231, > 100 µM (inactive). Besides, the GI50 with A498 is > 100 µM (inactive); with NCI-H226, > 100 µM (inactive); in the test with HOP-62, 41.2 µM (inactive); in the test on K562 it was 33.1 µM (inactive); with LOX IMVI, 19.4 µM (inactive); with SF-295, 48.5 µM (inactive). The GI50 with M14 was 32.1 µM (inactive); with CAKI-1 it was 47 µM (inactive); in the test on DU-145, 56.4 µM (inactive); in the test on TK-10 it was 28.1 µM (inactive); in the test with SF-268, 55.7 µM (inactive); in the test on SR it was 40.6 µM (inactive). Besides, the GI50 in the test with SK-MEL-2 was 30 µM (inactive).
For `S=C(Nc1ccc(Cl)cc1)SC1CCCCC1`, the GI50 is 19.2 µM (inactive) in the test with SN12C; 16.7 µM (inactive) in the test on SK-MEL-5; 33.7 µM (inactive) with CCRF-CEM; 27.8 µM (inactive) in the test with SK-OV-3; 23.2 µM with HCT-15; 29.4 µM (inactive) in the test with MDA-MB-231. For the same compound, the GI50 with NCI-H226 was 72.4 µM (inactive); in the test with HOP-62 it was 27.7 µM (inactive); in the test on K562, 36.1 µM (inactive); in the test on LOX IMVI, 16.4 µM (inactive); in the test with SF-295 it was 19.1 µM (inactive); in the test with M14, 19.7 µM (inactive). Further, the GI50 in the test with CAKI-1 was 15 µM (inactive); with DU-145, 40.9 µM (inactive); in the test with RXF 393, 25.1 µM (inactive); with TK-10, 40.6 µM (inactive); in the test on SF-268 it was 27 µM (inactive); in the test with SR it was 32.6 µM (inactive). Besides, in the test on SK-MEL-2, the GI50 is 17.6 µM (inactive).
As to `Cc1nn(C(=O)c2ccc(Cl)cc2)c2c1C(/C=C/c1ccccc1)SC(=N)N2` (centres undefined), the GI50 was > 10 µM (inactive) in the test with SN12C; > 10 µM (inactive) in the test with SK-MEL-5; > 10 µM (inactive) in the test on CCRF-CEM; > 10 µM (inactive) in the test on SK-OV-3; greater than 10 µM with HCT-15; > 10 µM (inactive) in the test with MDA-MB-231. Moreover, the GI50 in the test with NCI-H226, with HOP-62, in the test with K562, in the test on LOX IMVI, in the test on SF-295 and with M14 was > 10 µM (inactive) each time. Besides, the GI50 with CAKI-1, with DU-145, in the test with RXF 393, in the test on TK-10, in the test with SF-268 and in the test with SR was > 10 µM (inactive) in each case. Also, the GI50 in the test on SK-MEL-2 is > 10 µM (inactive).
For `C1CCNCC1.CN(C)c1ccc(/C=C2/NC(=S)NC2=O)cc1`, the GI50 in the test with SN12C was > 100 µM (inactive); in the test with SK-MEL-5, 30.8 µM (inactive); in the test with CCRF-CEM, 24.9 µM (inactive); with SK-OV-3, 69.3 µM (inactive); in the test with HCT-15, 45.3 µM; with MDA-MB-231, > 100 µM (inactive). Moreover, the GI50 in the test on NCI-H226 is 41.1 µM (inactive); in the test with HOP-62, > 100 µM (inactive); in the test on LOX IMVI it was 49 µM (inactive); in the test on SF-295 it was 40.5 µM (inactive); in the test on M14, 68.1 µM (inactive); in the test with CAKI-1 it was 62.5 µM (inactive). In addition, the GI50 was 62.1 µM (inactive) in the test on DU-145; 37.6 µM (inactive) in the test on RXF 393; 59 µM (inactive) in the test with TK-10; 82 µM (inactive) in the test on SF-268; 29.6 µM (inactive) in the test on SR; > 100 µM (inactive) with SK-MEL-2.
With `C=CCC(NCc1ccccc1)[C@H](OCc1ccccc1)[C@@H]1COC(C)(C)O1` (some centres undefined), the GI50 in the test with SN12C was 43.4 µM (inactive); in the test with SK-MEL-5 it was 23 µM (inactive); in the test with CCRF-CEM it was 28.1 µM (inactive); in the test with SK-OV-3, 79.3 µM (inactive); with HCT-15, 23.7 µM; in the test on MDA-MB-231, > 100 µM (inactive). Moreover, the GI50 in the test on A498 was 45.6 µM (inactive); in the test with NCI-H226, 15.6 µM (inactive); with HOP-62, 55.1 µM (inactive); in the test on K562, 23.7 µM (inactive); in the test on LOX IMVI it was 26 µM (inactive); with SF-295, 27.8 µM (inactive). The GI50 with M14 is 36.2 µM (inactive); in the test on DU-145, 97.3 µM (inactive); with TK-10, 23.8 µM (inactive); with SF-268, 44.9 µM (inactive); in the test on SR it was 21.1 µM (inactive); in the test with SK-MEL-2 it was 19.6 µM (inactive).
With `COc1ccc(Nc2nc3ccccc3nc2-c2cccs2)cc1OC`, the GI50 was > 10 µM (inactive) in the test with SN12C; > 10 µM (inactive) with SK-MEL-5; > 10 µM (inactive) in the test on CCRF-CEM; > 10 µM (inactive) with SK-OV-3; greater than 10 µM in the test with HCT-15; > 10 µM (inactive) with MDA-MB-231. For the same compound, the GI50 in the test with NCI-H226, in the test with HOP-62, with K562, in the test on LOX IMVI, with SF-295 and with M14 was > 10 µM (inactive) throughout. Moreover, the GI50 is > 10 µM (inactive) in the test with CAKI-1; > 10 µM (inactive) in the test with DU-145; > 10 µM (inactive) in the test with RXF 393; > 10 µM (inactive) in the test on TK-10; > 10 µM (inactive) with SF-268; 5.89 µM (inactive) in the test with SR. Also, in the test with SK-MEL-2, the GI50 was > 10 µM (inactive).
Consider `CCOC(=O)c1c(-c2ccccc2)[nH]c2ccc(Cl)cc2c1=O`, for which the GI50 is 51.4 µM (inactive) in the test with SN12C; 29.8 µM (inactive) in the test on SK-MEL-5; 26.4 µM (inactive) in the test with CCRF-CEM; 45.1 µM (inactive) with SK-OV-3; 33.3 µM in the test with HCT-15; 31.3 µM (inactive) with MDA-MB-231. Moreover, the GI50 in the test on NCI-H226 was 68.9 µM (inactive); in the test with HOP-62, 65.9 µM (inactive); in the test on K562, 28.8 µM (inactive); with LOX IMVI, 37.4 µM (inactive); in the test on SF-295 it was 47.8 µM (inactive); in the test with M14, 49.9 µM (inactive). Moreover, the GI50 is 37.9 µM (inactive) with CAKI-1; 56 µM (inactive) with DU-145; 35 µM (inactive) with RXF 393; 42.8 µM (inactive) in the test on TK-10; 50.1 µM (inactive) in the test on SF-268; 33.3 µM (inactive) in the test with SR. In the test on SK-MEL-2, the GI50 was 34 µM (inactive).
For `CC(C)(C(=O)NN)c1ccccc1`, the GI50 was > 100 µM (inactive) in the test with SN12C; > 100 µM (inactive) in the test on SK-MEL-5; > 100 µM (inactive) in the test on CCRF-CEM; > 100 µM (inactive) with SK-OV-3; greater than 100 µM in the test on HCT-15; > 100 µM (inactive) with MDA-MB-231. Also, the GI50 in the test with A498 is > 100 µM (inactive); in the test on HOP-62, > 100 µM (inactive); in the test on K562, > 100 µM (inactive); in the test with LOX IMVI it was 7.91 µM (inactive); in the test with SF-295, 33.7 µM (inactive); in the test with M14, > 100 µM (inactive). Also, the GI50 is > 100 µM (inactive) in the test with CAKI-1; > 100 µM (inactive) with DU-145; > 100 µM (inactive) with TK-10; 45.3 µM (inactive) in the test on SF-268; > 100 µM (inactive) in the test with SR; 21.6 µM (inactive) in the test on SK-MEL-2.
